Measurements: patent publication US10953099B2, “Compositions comprising a metal source, dithiocarbamate and cyclodextrin” (priority 2016, dated 2021)

Legend:
[1] = test system: Raji human B-cell lymphoma cells; experiment: Cell-titer-blue viability, Raji; assay type: cell-based; conditions: in presence of sulfobutyl ether-β-cyclodextrin, 72 h
Protocol: (§1) The anti-tumoral efficacy of a panel of 7 different Au complexes, ATM/Disulfiram, the standard therapeutic Cisplatin and well known antitumoral CuDTC (see Table 2) was tested on Jurkat human T-cell leukemia and Raji human B-cell lymphoma cells. […] 24 h later, test compound were added in the presence of sulfobutyl ether-β-cyclodextrin (30 fold disulfiram concentration) in various dilutions (100-0.01 μM). All concentrations were applied in triplicate. […] The “Factor of Selectivity for T-cell Leukemia” was calculated by division of IC50 on Raji cells/IC50 on Jurkat cells.

[2] = test system: Jurkat human T-cell leukemia cells; experiment: Cell-titer-blue viability, Jurkat; assay type: cell-based; conditions: for selectivity for Jurkat IC50 Raji/IC50 Jurkat (Factor of Selectivity for T-cell Leukemia): IC50 on Raji cells/IC50 on Jurkat cells; for IC50: in presence of sulfobutyl ether-β-cyclodextrin, 72 h
Protocol: as §1

H209 SCLC cells = experiment: H209 SCLC tumor relapse model in mice; assay type: in vivo, nu/nu mice; conditions: after 6 weeks DKFZ-00608 15 mg/kg daily in 60 mM sulfobutyl ether beta-cyclodextrin
Protocol: The inventors wanted to compare the efficacy of DKFZ-00608 on human SCLC tumors with standard therapy in vivo. […] Followed by DKFZ-00608 in 60 mM sulfobutyl ether beta-cyclodextrin (15 mg/kg daily) for 6 weeks • DKFZ-00608 in 60 mM sulfobutyl ether beta-cyclodextrin (15 mg/kg daily) for 6 weeks. Tumor sizes were determined 2× per week for the first 9 weeks, thereafter, once per week.

N.N.[Cl][Pt][Cl] [Cisplatin]
IC50 [1]: 2720 nM | selectivity for Jurkat IC50 Raji/IC50 Jurkat (Factor of Selectivity for T-cell Leukemia) [2]: 4.45 | IC50 [2]: 610 nM

CCN(CC)C(=S)[S-].CCN(CC)C(=S)[S-].[Cu+2] [CuDTC]
IC50 [1]: 20 nM | selectivity for Jurkat IC50 Raji/IC50 Jurkat (Factor of Selectivity for T-cell Leukemia) [2]: 2.62 | IC50 [2]: 10 nM

CCN(CC)/C1=[SH]/[Au][S]/C(N(CC)CC)=[SH]\[Au][S]1 [DKFZ-00608]
animals with no palpable tumors (H209 SCLC cells): 6 out of 10
